Among the data in patent US9701628B2, “12-epi pleuromutilins” (NABRIVA THERAPEUTICS AG, priority 2014, dated 2017) are MIC values, retold here.

In brackets after ≈: the same amount, converted by molar mass. Structures can show the parent of a compound that is named as a salt. Where two headings read alike, the source gives them in different places. Some results are limits rather than exact numbers.

Assay [1] concerns Staphylococcus aureus ATCC 49951. In words: MIC by broth microdilution (CLSI) against Staphylococcus aureus ATCC 49951. The class given is cell-based. The procedure: (§1) The in vitro activity against aerobic bacteria was determined by Broth Microdilution Test according to the Clinical and Laboratory Standards Institute (CLSI, former NCCLS) Document M7-A9 Vol 32, No 2 “Methods for Dilution Antimicrobial Susceptibility Tests for Bacteria that Grow Aerobically; Approved Standard—Ninth Edition (2012)”; and the test against anaerobic bacteria was performed by Agar Dilution Test according to the Clinical and Laboratory Standards Institute (CLSI, former NCCLS), Document, M11-A8, Vol. 32, No. 5: “Methods for Antimicrobial Susceptibility Testing of Anaerobic Bacteria; Approved Standard—Eighth Edition (2012)”. Performance standards and interpretive criteria followed the CLSI Document, M100-S23: “Performance Standards for Antimicrobial Susceptibility Testing; Twenty-Third Informational Supplement” (2013). The in vivo activity was tested by the septicaemia mouse model against Staphylococcus aureus and Escherichia coli.
(§2) The antibacterial activity expressed as minimal inhibitory concentration (MIC) was determined according to the approved standard reference recommendations of CLSI (former NCCLS) as described in the description of the application.
For orientation: In broth dilution the organism is exposed to a series of concentrations in liquid medium.

Assay [2] concerns Escherichia coli ATCC25922. Kind of assay: MIC by broth microdilution (CLSI) against Escherichia coli ATCC 25922. The class given is cell-based. The procedure: as §1, §2
Where [3] appears, read: Staphylococcus aureus ATCC 49951, in vitro.
[4] abbreviates: Escherichia coli ATCC25922, in vitro.
Where [5] appears, read: ATCC49951, Staphylococcus aureus ATCC 49951, in vitro, read-out: MIC.
The mark [6] stands for this setting: Escherichia coli ATCC25922, in vitro, read-out: MIC.

Take `CC1C(O)C(C)(CNCc2cc(F)c(CN)cc2F)CC(OC(=O)CSc2ccc(CN)cn2)C2(C)C(C)CCC13CCC(=O)C32.Cl.Cl.Cl.Cl` (stereo not drawn) [Example 103, 12-epi-12-desvinyl-14-O-{[5-Aminomethyl-pyridin-2-yl-sulfanyl]-acetyl}-12-[(4-aminomethyl-2,5-difluoro-benzylamino)-methyl] mutilin tetrahydrochloride]: the minimum inhibitory concentration (MIC) in assay [1] (setting [3]) is 0.5 mg/L; in assay [2] (setting [4]), 4 mg/L.
For `CC1C(O)C(C)(CNCCCN)CC(OC(=O)CSc2ccc(CNCc3ccc(CN)cc3)cc2)C2(C)C(C)CCC13CCC(=O)C32.Cl.Cl.Cl.Cl` (stereo not drawn) [Example 115, 12-epi-12-desvinyl-14-O-{{4-[(4-Aminomethyl-benzylamino)-methyl]-phenylsulfanyl}-acetyl}-12-[(3-amino-propylamino)-methyl] mutilin tetrahydrochloride], the MIC result in assay [1] (setting [3]) is “≦0.03 μg/mL”; in assay [2] (setting [4]), 0.25 mg/L.
In the case of `C[C@@H]1CC[C@@]23CCC(=O)[C@H]2[C@]1(C)[C@H](OC(=O)CSC1CCCNCC1)C[C@](C)(CNCCCCCCN)[C@@H](O)[C@@H]3C` (stereo partly drawn) [Example 130, 12-epi-12-desvinyl-14-O-[(Azepan-4-ylsulfanyl)-acetyl]-12-[(6-amino-hexylamino)-methyl] mutilin trihydrochloride], the figures for the MIC in assay [1] (setting [5]) and in assay [2] (setting [6]) were at most 0.03 mg/L and 0.5 mg/L, respectively.
For `CC1C(O)C(C)(CNCCCCCCNC(=N)N)CC(OC(=O)CSC2CCCNCC2)C2(C)C(C)CCC13CCC(=O)C32.Cl.Cl.Cl` (stereo not drawn) [Example 131, 12-epi-12-desvinyl-14-O-[(Azepan-4-ylsulfanyl)-acetyl]-12-[(6-guanidino-hexylamino)-methyl] mutilin trihydrochloride], the figures for the MIC in assay [1] (setting [3]) and in assay [2] (setting [4]) were 0.06 mg/L and 0.125 mg/L, respectively.
As for `C[C@@H]1CC[C@@]23CCC(=O)[C@H]2[C@]1(C)[C@H](OC(=O)CSC1CCCNCC1)C[C@](C)(CCNc1ccc(CN)cc1)[C@@H](O)[C@@H]3C` (stereo partly drawn) [Example 143, 12-epi-12-desvinyl-14-O-[(Azepan-4-ylsulfanyl)-acetyl]-12-[(4-aminomethyl-phenylamino)-ethyl] mutilin trihydrochloride], the MIC in assay [1] (setting [5]) came out at 0.125 mg/L; in assay [2] (setting [6]), 4 mg/L.
Take `C[C@@H]1CC[C@@]23CCC(=O)[C@H]2[C@]1(C)[C@H](OC(=O)CSC1CCN(C(=O)CN)CC1)C[C@](C)(CCCCCCCCN)[C@@H](O)[C@@H]3C` [Example 146, 12-epi-12-desvinyl-14-O-{[1-(2-Amino-acetyl)-piperidin-4-yl-sulfanyl]-acetyl}-2-(8-amino-octyl) mutilin dihydrochloride]: the MIC in assay [1] (setting [5]) is at most 0.03 mg/L; in assay [2] (setting [6]), 8 mg/L.
In the case of `C[C@@H]1CC[C@@]23CCC(=O)C2[C@]1(C)[C@H](OC(=O)CSC1CCC(CNC(=O)CN)CC1)C[C@](C)(CCc1ccc(CNCCN)cc1)[C@@H](O)[C@@H]3C` (stereo partly drawn) [Example 152, 12-epi-12-desvinyl-14-O-{{4-[(2-Amino-acetylamino)-methyl]-cyclohexylsulfanyl}-acetyl}-12-[2-{4-[(2-amino-ethylamino)-methyl]-phenyl}-ethyl) mutilin trihydrochloride], the MIC in assay [1] (setting [5]) was 0.25 mg/L; in assay [2] (setting [6]), 4 mg/L.
Consider `CC1C(O)C(C)(C=Cc2ccc(CNCCN)c(F)c2)CC(OC(=O)CSC2CCCNCC2)C2(C)C(C)CCC13CCC(=O)C32.Cl.Cl.Cl` (stereo not drawn) [Example 157, 12-epi-12-desvinyl-14-O-[(Azepan-4-ylsulfanyl)-acetyl]-12-((E)-2-{4-[(2-amino-ethylamino)-methyl]-3-fluoro-phenyl}-ethenyl) mutilin trihydrochlorid], for which the MIC in assay [1] (setting [3]) turned out to be 0.25 mg/L; in assay [2] (setting [4]), 4 mg/L.
The matching figures for `C=C[C@@]1(C)C[C@@H](OC(=O)CSc2nnc(N)[nH]2)[C@]2(C)[C@H](C)CC[C@]3(CCC(=O)[C@H]32)[C@@H](C)[C@@H]1O.Cl` [Example C1, 12-epi-14-O-{[(5-Amino-4H-1,2,4-triazol-3-yl)-sulfanyl]-acetyl} mutilin hydrochloride, reference compound]: 0.5 mg/L and 128 mg/L.
With `C=CC1(C)CC(OC(=O)CSc2ccc(CC(=O)NCC(C)N)cc2)C2(C)C(C)CCC3(CCC(=O)C32)C(C)C1O.Cl` (centres unmarked) [Example C2, 14-O-{{4-[(2-Amino-propylcarbamoyl)-methyl]-phenylsulfanyl}-acetyl} mutilin hydrochloride, reference compound], the MIC result was “≦0.03 μg/mL” in assay [1] (setting [3]) and 32 mg/L in assay [2] (setting [4]).
In the case of `CC1C(O)C(C)(CNCCCN)CC(OC(=O)CSC2CCC(N)CC2O)C2(C)C(C)CCC13CCC(=O)C32.Cl.Cl.Cl` [Example C3, 14-O-{[(1R,2R,4R)-4-Amino-2-hydroxy-cyclohexylsulfanyl]-acetyl}-12-desvinyl-12-[(3-amino-propylamino)-methyl] mutilin trihydrochlorid, reference compound], the MIC in assay [1] (setting [3]) is 16 mg/L; in assay [2] (setting [4]), above 32 mg/L.
For `C=C[C@]1(C)C[C@@H](OC(=O)CS[C@@H]2C[C@H]3CC[C@@H](C2)N3C)[C@]2(C)[C@H](C)CC[C@]3(CCC(=O)[C@H]32)[C@@H](C)[C@@H]1O` [Retapamulin, retapamulin, reference compound], the MIC in assay [1] (Staphylococcus aureus, ATCC49951) was at most 0.03 mg/L; in assay [2] (Escherichia coli, ATCC25922) it was 32 mg/L (≈ 61.8 µM).
Regarding `C=C[C@]1(C)C[C@@H](OC(=O)CSCCN(CC)CC)[C@]2(C)[C@H](C)CC[C@]3(CCC(=O)[C@H]32)[C@@H](C)[C@@H]1O` [Tiamulin, tiamulin, reference compound], the MIC in assay [1] (setting [5]) was 0.5 mg/L (≈ 1.01 µM); in assay [2] (setting [6]), above 32 mg/L.

A word on the MIC: it is the lowest concentration found to suppress growth.
